Reference: patent publication US20190374554A1, “USE OF OXYGENATED CHOLESTEROL SULFATES (OCS) TO TREAT INFLAMMATORY SKIN DISEASE AND SKIN LESIONS” (Virginia Commonwealth University, priority 2016, published 2019)

How the values were obtained:
[1] = Infusion compatibility: 25HC3S diluted in 5% dextrose infusion bag and eluted through infusion sets (potency, osmolality, pH, appearance); assay type: physicochemical
Method: A physical and chemical compatibility study was conducted at a 30 mg, 48 mg and 300 mg 25HC3S dose in 5% dextrose and 0.9% sodium chloride infusion bags. Descriptions of the two kinds of infusion sets tested with 25HC3S product diluted in 5% dextrose and 0.9% sodium chloride are listed in Table 15. The tubing in catalog number 2H8480 infusion set was composed of polyvinylchloride (PVC), while the tubing in catalog number 2C8858 was polyethylene lined except for a short pump segment (approximately 12 inches) which was composed of PVC.
25HC3S for Injection and Vehicle for 25HC3S for Injection, that had been stored at 2-8° C. for approximately 16 months, were used for the compatibility study. After constitution, 30 mg (1.0 mL of constituted product), 48 mg (1.6 mL of constituted product) or 300 mg (10 mL of constituted product) were added to 100 mL infusion bags of 5% dextrose and 0.9% sodium chloride, mixed thoroughly, and stored for 24 hours at room temperature and at 2-8° C. […] Taking into consideration the overfill per infusion bag and the additional volume introduced by adding the constituted 25HC3S product to each bag, the expected concentrations of 25HC3S were 0.28 mg/mL, 0.44 mg/mL, and 2.56 mg/mL in the infusion bags. Two kinds of infusion sets were then attached to the drug containing infusion bags, and the entire contents were eluted through the infusion sets at approximately 50 mL/hour at room temperature. Samples were collected from the 25HC3S prepared infusion bags at T=0 and at 24 hours, and from the total eluent passed through the infusion sets, and tested for 25HC3S concentration using HPLC. Solution visual appearance, osmolality (using method USP<785>), and pH (using method USP<791>) were also measured on the collected samples.

[2] = Drug solubility / drug loading in solvents and compositions; assay type: physicochemical
[3] = 5% dextrose, approx. 0.28 mg/mL, bag 24 h at 25° C., Baxter 2H8480
[4] = 5% dextrose, approx. 0.44 mg/mL, bag 24 h at 2-8° C., Baxter 2C8858
[5] = 5% dextrose, approx. 0.44 mg/mL, bag 24 h at 2-8° C., Baxter 2H8480
[6] = 5% dextrose, approx. 0.44 mg/mL, bag 24 h at 25° C., Baxter 2C8858
[7] = 5% dextrose, approx. 0.44 mg/mL, bag 24 h at 25° C., Baxter 2H8480
[8] = 5% dextrose, approx. 2.56 mg/mL, bag 24 h at 2-8° C., Baxter 2C8858
[9] = 5% dextrose, approx. 2.56 mg/mL, bag 24 h at 2-8° C., Baxter 2H8480
[10] = 5% dextrose, approx. 2.56 mg/mL, bag 24 h at 25° C., Baxter 2C8858
[11] = 5% dextrose, approx. 2.56 mg/mL, bag 24 h at 25° C., Baxter 2H8480
[12] = dextrose drug containing solutions

C[C@H](CCCC(C)(C)O)[C@H]1CC[C@H]2[C@@H]3CC=C4C[C@@H](OS(=O)(=O)[O-])CC[C@]4(C)[C@H]3CC[C@]12C.[Na+] [Formulation 25HC3S, 5-cholesten-3, 25-diol, 3-sulfate]
After Storage in Infusion Bag and Collection from Infusion Set pH ([1]; 5% dextrose, approx. 0.28 mg/mL, bag 24 h at 25° C., Baxter 2C8858): 7.04 | After Storage in Infusion Bag and Collection from Infusion Set % Remaining Compared to T = 0 [1, 3]: (100.0%) | After Storage in Infusion Bag and Collection from Infusion Set Concentration [1, 3]: 0.276 mg/mL | After Storage in Infusion Bag and Collection from Infusion Set Osmolality [1, 3]: 252 mmol/kg | After Storage in Infusion Bag and Collection from Infusion Set pH [1, 3]: 6.99 | After Storage in Infusion Bag and Collection from Infusion Set % Remaining Compared to T = 0 [1, 4]: (100.2%) | After Storage in Infusion Bag and Collection from Infusion Set Concentration [1, 4]: 0.440 mg/mL | After Storage in Infusion Bag and Collection from Infusion Set Osmolality [1, 4]: 255 mmol/kg | After Storage in Infusion Bag and Collection from Infusion Set pH [1, 4]: 6.93 | After Storage in Infusion Bag and Collection from Infusion Set % Remaining Compared to T = 0 [1, 5]: (100.2%) | After Storage in Infusion Bag and Collection from Infusion Set Concentration [1, 5]: 0.440 mg/mL | After Storage in Infusion Bag and Collection from Infusion Set Osmolality [1, 5]: 257 mmol/kg | After Storage in Infusion Bag and Collection from Infusion Set pH [1, 5]: 6.91 | After Storage in Infusion Bag and Collection from Infusion Set % Remaining Compared to T = 0 [1, 6]: (100.0%) | After Storage in Infusion Bag and Collection from Infusion Set Concentration [1, 6]: 0.442 mg/mL | After Storage in Infusion Bag and Collection from Infusion Set Osmolality [1, 6]: 253 mmol/kg | After Storage in Infusion Bag and Collection from Infusion Set pH [1, 6]: 6.90 | After Storage in Infusion Bag and Collection from Infusion Set % Remaining Compared to T = 0 [1, 7]: (100.2%) | After Storage in Infusion Bag and Collection from Infusion Set Concentration [1, 7]: 0.448 mg/mL | After Storage in Infusion Bag and Collection from Infusion Set Osmolality [1, 7]: 253 mmol/kg | After Storage in Infusion Bag and Collection from Infusion Set pH [1, 7]: 6.91 | After Storage in Infusion Bag and Collection from Infusion Set % Remaining Compared to T = 0 [1, 8]: (100.4%) | After Storage in Infusion Bag and Collection from Infusion Set Concentration [1, 8]: 2.535 mg/mL | After Storage in Infusion Bag and Collection from Infusion Set Osmolality [1, 8]: 248 mmol/kg | After Storage in Infusion Bag and Collection from Infusion Set pH [1, 8]: 6.10 | After Storage in Infusion Bag and Collection from Infusion Set % Remaining Compared to T = 0 [1, 9]: (100.4%) | After Storage in Infusion Bag and Collection from Infusion Set Concentration [1, 9]: 2.540 mg/mL | After Storage in Infusion Bag and Collection from Infusion Set Osmolality [1, 9]: 247 mmol/kg | After Storage in Infusion Bag and Collection from Infusion Set pH [1, 9]: 5.99 | After Storage in Infusion Bag and Collection from Infusion Set % Remaining Compared to T = 0 [1, 10]: (101.4%) | After Storage in Infusion Bag and Collection from Infusion Set Concentration [1, 10]: 2.545 mg/mL | After Storage in Infusion Bag and Collection from Infusion Set Osmolality [1, 10]: 251 mmol/kg | After Storage in Infusion Bag and Collection from Infusion Set pH [1, 10]: 6.00 | After Storage in Infusion Bag and Collection from Infusion Set % Remaining Compared to T = 0 [1, 11]: (99.2%) | After Storage in Infusion Bag and Collection from Infusion Set Concentration [1, 11]: 2.480 mg/mL | After Storage in Infusion Bag and Collection from Infusion Set Osmolality [1, 11]: 261 mmol/kg | After Storage in Infusion Bag and Collection from Infusion Set pH [1, 11]: 6.01 | deviation of 25HC3S concentrations from the initial T=0 time point ([1]; 5% dextrose, after 24 hours at room temperature and at 2-8° C., and after elution through infusion sets): ≤ 1.4% | osmolality trend [1, 12]: no consistent trends over time in the infusion bag or after elution through the infusion sets | pH trend [1, 12]: no trends over time or after elution through the infusion sets | solution visual appearance ([1]; dextrose, all three concentrations, after 24 hours in bags and after elution): remained as clear and colorless solutions | state of drug in the prepared compositions ([2]; 6 wt % 25HC3S, compositions of Tables 31 and 32): all in solution | maximum drug loading achieved ([2]; Carbopol based creams or gels): 1 wt % | drug solubility ([2]; in EtOH): ~3 mg/mL | drug solubility ([2]; in PEG 400): ~130 mg/mL | drug solubility ([2]; in PG): ~30 mg/mL
